Where a SMILES comes first, the peptide text is derived from it. Bridges are numbered along the chain shown (N, C = ends). [ ]: non-standard residue; d: D form. Nle = CCCC[C@H](N)C(=O)O

One series has as its target human NK1 (Homo sapiens, UniProt P25103). In words: Calcium mobilization functional assay, agonist mode, CHONK1 cells. The series is classed as cell-based. More on the design: expressed in transfected cells; host or cells: CHO cells (gift of Prof. T. Costa, ISS, Rome). To be noted: for NK1 α ± SEM: efficacy (intrinsic activity), Emax relative to SP. For orientation: A change in cytosolic calcium serves as a functional read-out for many receptors and channels.

Series [1] concerns mice. In words: Stool collection (stool mass, stool water content). The series is classed as in vivo. To be noted: repeated i.p. injections 5 mg/kg, stool collected 90 min after injection on Days 1–6, compared to control group, n = 10. How it is done: In order to determine the influence of prolonged administration of the tested compounds on gastrointestinal passage, stool was collected for six days from mice used in the tolerance development test.
Figure 5 Effect of repeated i.p. injections of saline and the tested peptides on stool mass (A), stool water content (B), food intake (C), and water consumption (D). The data represent mean ± SEM, n = 10. Statistical significance was assessed using one-way ANOVA and a post hoc multiple comparison by the Student–Newman–Keuls test. *** p < 0.001, as compared to control.
After the i.p. injections of saline or peptides (Days 1–6), mice were placed in a separate clean cages and stool was collected for a period of 90 min. Fecal pellets were collected immediately after expulsion to avoid evaporation and placed in closed 1.5 mL tubes. Tubes were weighed to obtain the wet weight of the stool. Then, the tubes were opened and stool was dried overnight at 65 °C and reweighed to obtain the dry weight. The stool water content was calculated from the difference between the wet and dry stool weights.

Series [2] addresses T1, human opioid receptor MOR (Homo sapiens, UniProt P35372).
T1 construct: purchased PerkinElmer (Krakow, Poland); host or cells: CHO cell membranes
In words: Radioligand binding assay, displacement of [3H]DAMGO. To be noted: displacement of [3H]DAMGO from membranes of CHO cells transfected with human MOR, 50 mM Tris/HCl pH 7.4, 0.5% BSA, peptidase inhibitors, 2 h at 25 °C, mean ± SEM, n ≥ 3. How it is done:
(§1) A radioligand binding assay was performed to determine the opioid receptor (OR) binding affinities of the novel analogs using commercially available membranes of Chinese hamster ovary cells (CHO) transfected with human recombinant ORs. [^3H]DAMGO, [^3H]deltorphin-2, and [^3H]U-69593 were used as the radioligands for MOR, DOR, and KOR, respectively. Tyr-[D-Lys-Phe-Phe-Asp]NH2 (1) was used as a reference opioid compound. […] None of them acquired significant DOR affinity.
(§2) To determine the affinity of peptide analogs to respective receptors, competition binding experiments were performed, as described in detail elsewhere.
(§3) Commercial membranes of CHO cells stably expressing either human ORs or NK1 receptor were used. [^3H]DAMGO, [^3H]deltorphin-2, and [^3H]U-69593 were employed as the competing radioligands for MOR, DOR, and KOR, respectively, while [^3H][Sar^9, Met(O2)^11]SP was utilized for the NK1 receptor. Membranes were incubated in a 0.5 mL volume of 50 mM Tris/HCl (pH = 7.4), 0.5% bovine serum albumin (BSA), with a number of peptidase inhibitors (bacitracin, bestatin, captopril) and various concentrations of radioligands for 2 h at 25 °C. Nonspecific binding was assessed in the presence of […] naloxone for ORs or SP for NK1 receptor.
(§4) The pharmacological terminology adopted in this paper is consistent with International Union of Basic and Clinical Pharmacology (IUPHAR) recommendations. Concentration–response curves were analyzed by nonlinear regression using Graph Pad Prism 6.0 (La Jolla, CA, USA). […]. […] Concentration–response curves were fitted with the four-parameter logistic nonlinear regression model (1) Effect=baseline+Emax−baseline/1+10^logEC50−X·n where X is the agonist concentration and n is the Hill coefficient. Ligand efficacy was expressed as intrinsic activity (α) calculated as a ratio of the peptide Emax to the Emax of the standard agonist (Supplementary Materials, Figure S7). […]. All statistical analyses were performed using Graph Pad Prism 6.0 (La Jolla, CA, USA). Differences between groups were analyzed with one-way ANOVA and a post hoc multiple comparison by the Student–Newman–Keuls test. A probability level of 0.05 or smaller was used to indicate statistical significance.

Series [3] has as its target T2, human opioid receptor KOR (Homo sapiens, UniProt P41145).
T2 construct: purchased PerkinElmer (Krakow, Poland); host or cells: CHO cell membranes
In words: Radioligand binding assay, displacement of [3H]U-69593. Conditions: displacement of [3H]U-69593 from membranes of CHO cells transfected with human KOR, 50 mM Tris/HCl pH 7.4, 0.5% BSA, peptidase inhibitors, 2 h at 25 °C, mean ± SEM, n ≥ 3. The protocol: as §1, §2, §3, §4
A general note: In a radioligand displacement assay an active substance lowers the binding of a labelled ligand.

Series [4] deals with mice. In words: Tolerance development, writhing test after repeated injections. The series is classed as in vivo. To be noted: 5 mg/kg i.p. once daily for seven days, writhing test on Day 7, n = 10. How it is done: To examine whether mice developed tolerance to hybrids 2 and 4, these analogs and analog 1 for comparison were injected once daily (5 mg/kg) for seven consecutive days. After repeated administration, the antinociceptive effect was determined on Day 7, performing the writhing test as above.
Figure 4 A comparison of the antinociceptive effect of single (Day 1) and repeated (Day 7) i.p. injections of opioid analog 1 and hybrids 2 and 4 at the dose of 5 mg/kg in the writhing test in mice. The data represent mean ± SEM, n = 10. Statistical significance was assessed using one-way ANOVA and a post hoc multiple comparison by the Student–Newman–Keuls test. *** p < 0.001, as compared to control.
Peptides were administered at the highest dose (5 mg/kg) used before in the writhing test. In the experiment, four new groups of animals (10 mice per group, housed in one cage) underwent repeated injections (i.p.) of saline or the tested compounds (Days 1–7). On Day 7, following saline or peptide administration, the writhing test was performed, as described above. The antinociceptive activity of a compound was compared to the activity obtained after a single injection of this compound in the corresponding dose (5 mg/kg).

human NK1, sequence (P25103 whole entry): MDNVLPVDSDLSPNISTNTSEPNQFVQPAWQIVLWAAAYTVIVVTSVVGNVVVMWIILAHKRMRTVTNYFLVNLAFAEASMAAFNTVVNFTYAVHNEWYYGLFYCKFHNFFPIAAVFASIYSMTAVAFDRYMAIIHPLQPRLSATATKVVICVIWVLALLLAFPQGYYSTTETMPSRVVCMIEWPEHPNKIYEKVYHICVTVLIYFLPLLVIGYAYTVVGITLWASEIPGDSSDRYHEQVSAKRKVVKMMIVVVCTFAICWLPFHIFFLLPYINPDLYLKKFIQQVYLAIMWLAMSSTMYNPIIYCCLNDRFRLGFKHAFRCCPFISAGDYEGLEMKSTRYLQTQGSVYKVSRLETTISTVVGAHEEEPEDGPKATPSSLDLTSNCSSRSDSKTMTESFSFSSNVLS
T2 sequence (P41145 whole entry): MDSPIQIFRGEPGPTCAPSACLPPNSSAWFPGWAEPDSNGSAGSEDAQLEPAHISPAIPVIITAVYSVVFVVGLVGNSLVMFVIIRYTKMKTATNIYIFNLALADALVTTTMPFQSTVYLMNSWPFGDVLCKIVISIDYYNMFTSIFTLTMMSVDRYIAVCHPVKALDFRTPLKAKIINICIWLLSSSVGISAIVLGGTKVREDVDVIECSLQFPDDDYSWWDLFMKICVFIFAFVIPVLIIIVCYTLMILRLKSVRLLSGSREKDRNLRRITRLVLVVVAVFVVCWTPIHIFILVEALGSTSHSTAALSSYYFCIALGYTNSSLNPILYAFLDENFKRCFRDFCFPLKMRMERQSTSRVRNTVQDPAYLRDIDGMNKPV
T1 sequence (P35372 whole entry): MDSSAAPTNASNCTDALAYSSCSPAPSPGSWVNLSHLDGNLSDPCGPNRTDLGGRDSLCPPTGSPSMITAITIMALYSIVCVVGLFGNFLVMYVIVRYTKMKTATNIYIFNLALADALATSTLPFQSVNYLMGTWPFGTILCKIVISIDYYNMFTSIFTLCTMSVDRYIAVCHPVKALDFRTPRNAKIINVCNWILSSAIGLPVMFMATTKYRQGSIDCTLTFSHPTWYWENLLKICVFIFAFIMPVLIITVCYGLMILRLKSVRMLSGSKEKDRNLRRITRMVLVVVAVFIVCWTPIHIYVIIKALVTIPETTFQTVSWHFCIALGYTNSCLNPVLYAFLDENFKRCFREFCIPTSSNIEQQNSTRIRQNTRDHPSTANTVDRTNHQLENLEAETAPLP

For `CSCC[C@H](NC(=O)[C@H](CC(C)C)NC(=O)CNC(=O)[C@H](Cc1ccccc1)NC(=O)[C@H](Cc1ccccc1)NC(=O)[C@H](CCC(N)=O)NC(=O)[C@@H]1CC(=O)NCCCC[C@@H](NC(=O)[C@@H](N)Cc2ccc(O)cc2)C(=O)N[C@@H](Cc2ccccc2)C(=O)N[C@@H](Cc2ccccc2)C(=O)N1)C(N)=O` [compound 4, Tyr-[D-Lys-Phe-Phe-Asp]-Gln-Phe-Phe-Gly-Leu-Met-NH2] (H-Y[dK]FFDQFFGLM-NH2; lactam 2-5), the EC50 – broadly, the concentration at which the effect is half-maximal – on human NK1 is 3.55 nM. For the same molecule, at human NK1 (calcium mobilization, CHONK1 cells, from pEC50 values), the “lower potency at NK1 than SP” value is on record as “fourfold”. The “NK1 α ± SEM” value on human NK1 (CHONK1 cells, N = 5, SEM) is recorded as 0.96 ± 0.05. For the same molecule, in the series on mice [1], the “stool mass (constipation)” value is “no statistically significant differences”. The Ki (commonly the dissociation constant of the complex between target and ligand, obtained from inhibition or displacement) in series [2] was found to be 7.98 ± 0.97 nM; in series [3], 10.8 ± 0.85 nM. Besides, the “tolerance development (analgesic activity on Day 7 versus Day 1)” value in the series on mice [4] is reported as “did not cause tolerance development”.
For the molecule `CCCC[C@H](NC(=O)[C@H](CC(C)C)NC(=O)[C@@H](Cc1c[nH]c2ccccc12)NC(=O)[C@H](Cc1ccccc1)NC(=O)[C@@H](Cc1c[nH]c2ccccc12)NC(=O)[C@H](CC(N)=O)NC(=O)[C@@H]1CC(=O)NCCCC[C@@H](NC(=O)[C@@H](N)Cc2ccc(O)cc2)C(=O)N[C@@H](Cc2ccccc2)C(=O)N[C@@H](Cc2ccccc2)C(=O)N1)C(N)=O` [compound 2, Tyr-[D-Lys-Phe-Phe-Asp]-Asn-D-Trp-Phe-D-Trp-Leu-Nle-NH2] (H-Y[dK]FFDN[dW]F[dW]L[Nle]-NH2; lactam 2-5), the “NK1 pEC50 (CL95%)” value at human NK1 (CHO cells expressing human NK1 (CHONK1), Fluo-4 AM calcium signal, N = 5) is listed as “Inactive”. Also, the “NK1 α ± SEM” value on human NK1 (CHONK1 cells, N = 5) is reported as “Inactive”. For the same molecule, the “stool mass (constipation)” value in the series on mice [1] was “no statistically significant differences”. Further, the Ki in series [2] was found to be 5.99 ± 0.7 nM; in series [3], 7.46 ± 0.6 nM. The “tolerance development (analgesic activity on Day 7 versus Day 1)” value in the series on mice [4] is listed as “did not cause tolerance development”.

The values above are taken from publication PMC6943619, “Synthesis and Pharmacological Evaluation of Hybrids Targeting Opioid and Neurokinin Receptors” (Molecules, 2019).
